The values that follow come from patent publication US20180147140A1, “Treatment and Prevention of ENT Infections” (priority 2016, published 2018).

The structures appear in SMILES notation.

This experiment has as its system chronic sinusitis. Description: Patient Case 1: self-reported Health Related Quality of Life Scale and symptoms. The format is in vivo, human. To be noted: treatments before the invention regime. The source says: Person in good health, whose daily med profile includes • Taking one statin generic drug daily • Taking one over the counter multiple vitamin daily • On average two medical exams each year • No diagnosed medical conditions or concerns
Symptoms—blocked nasal passages especially on the right side of the face, continuous hardened yellow translucent pus discharge from right nostril, minor periodic bleeding, nasal sound quality of voice, a propensity for cold virus to linger and a whistle sound while breathing through the nostrils.
The Kaiser treatment program consisted of a saline rinse bulb and recommendation of daily saline sinus rinsing along with a nasal steroid spray available over the counter. […] The patient continued occasional use of the regimen over the following 15 years with no noticeable improvement.
Treatment began on Mar. 9, 2016 with a new and unique product. The formulation used is Composition 1 in the Formulation Example.
Initial treatment was for 14 days, one dose daily in each nostril, approximately ¼ ounce (7.3 milliliters) administered with a nose dropper while the patient was lying down with chin inclined upward—sometimes with head over the edge of bed or pillow to increase the incline of the forehead to be lower than the chin. The patient remained unmoving for five minutes with no blowing of the nose to allow gravity saturation to reach the deep passages. […]

`CC1(C)S[C@@H]2[C@H](NC(=O)[C@H](N)c3ccc(O)cc3)C(=O)N2[C@H]1C(=O)O` [amoxicillin]: the “relief of sinusitis symptoms under earlier treatments” value is reported as “no relief from the sinusitis”.
